Laboratory results reported in PMC4764201, “High Throughput Screen for Escherichia coli Twin Arginine Translocation (Tat) Inhibitors” (PLoS ONE, 2016).
Read-outs that look alike come from different tables or passages of the source.

Test system: Escherichia coli Tat pathway
Assay: Live cell assay: total mCherry fluorescence of cells producing spTorA-mCherry-SsrA (primary HTS assay)
Type: cell-based
Conditions: for effect on synthesis of spTorA-mCherry-SsrA: appears to be a consequence of growth inhibition; for IC50: read-out: IC50 (Live Cell Assay)
From the text: Having obtained the calibration and validation data described in the previous sections, we next established the protocol for the HTS. Details are provided in the Materials and Methods section. Here, we briefly summarize the assay. A single colony of E. coli strain MC4100(DE3) containing plasmids encoding TatABC and spTorA-mCherry-SsrA was inoculated into LB and grown overnight. The next morning, cells were transferred to fresh media, the production of TatABC and spTorA-mCherry-SsrA was induced, and cultures were aliquoted onto plates with test compounds. NaSCN was included in control wells to simulate a hit. Cells were grown for 8 h, followed by incubation at 4°C overnight, and then read the next day. Setting the total cellular fluorescence obtained with spTorA-mCherry-H6 under Tat^++ conditions to 100%, spTorA-mCherry-SsrA yielded a total cellular fluorescence signal of 63±14%, consistent with SsrA-induced degradation of the mCherry protein. The total cellular fluorescence was further reduced to 36±14% in the presence of 30 mM NaSCN (simulated hit), and to 41±6% in the absence of TatABC, verifying the Δψ- and Tat-dependence of the fluorescence signal (Fig 4D).
A single colony of E. coli strain MC4100(DE3) (pTatABC-DUET1, pTorA-mCherry-SsrA) was inoculated into a 100 mL LB culture supplemented with Ap and Cm and grown at 37°C with shaking (250 rpm) overnight. Cells were harvested by centrifugation at 4,000g for 10 min at room temperature (RT), suspended in 10 mL fresh LB broth supplemented with Ap and Cm, and the optical density (A500) was determined. Simultaneously, 700 mL LB supplemented with 100 mM arabinose, 2 mM IPTG, 100 μg/mL Ap and 68 μg/mL Cm was filter-sterilized (0.22 μm), and then divided into 200 mL (A) and 500 mL (B) portions. Sterile NaSCN (30 mM final; 1.5 mL of 4 M NaSCN) was added to portion A, and an equal ratio of sterile water was added to portion B (3.75 mL). Media and cells were transferred to the HTS facility on ice.
A CyBi-Well vario pipetting workstation (CyBio, Jena, Germany) was used to dispense library compounds and cultures. Library compounds (1 μL) solubilized in DMSO were added to 384-well black, clear-bottomed plates (Greiner Bio-one, Germany) in columns 3 to 22 (320 wells/plate). For controls, DMSO (1 μL) was added to each well in columns 1, 2, […], to achieve DMSO uniformity across the plate. Both portions of LB media were inoculated with E. coli MC4100(DE3) (pTatABC-DUET1, pTorA-mCherry-SsrA) from the concentrated stock to a final A500 = 0.15. The media with 30 mM NaSCN (positive control, or simulated hit) was dispensed into each well of columns 1 and 24 (49 μL each). An equivalent volume of media without NaSCN was dispensed into each well of columns 2 to 23. Columns 2 and 23 lacked NaSCN and test compounds and served as negative controls. The first 12,800 compounds were screened at 5 μM (plates 1–40), and the remaining 38,800 compounds were screened at 20 μM (plates 41–162).
The plates containing cells and dispersed test compounds were grown with shaking (200 rpm) at 25°C for 8 h. Plates were individually mounted, not stacked, on a hollow plastic platform, allowing adequate air circulation. Following the 8 h incubation, plates were transferred to 4°C for 16 h. Each plate was covered with an empty plate to prevent condensation on the lid. […] Following the incubation, plates were read using a BMG Polarstar Omega plate reader (BMG Labtech, Ortenberg, Germany) to determine optical densities (A500) and mCherry fluorescence intensities (EX = 584 nm, EM = 620 nm).
Supplementary file pone.0149659.s003.tiff: S3 Fig IC50's for Hit Compound 181^JS. (A) The total cellular mCherry fluorescence (live cell assay; n = 1), (B) the in vitro NADH-dependent Tat transport efficiency of pre-SufI (n = 1), and (C) the maximum transmembrane electrical potential gradient (n = 1) were measured for a range of concentrations of compound 181^JS (S2E Fig). (D) SDS-PAGE gel showing in-gel fluorescence data used in (B). […]

[1] = mCherry fluorescence intensity during in vivo cell growth, Tat++ conditions, 384-well plate

Cc1ccc(S(=O)(=O)/C=C/C#N)cc1 [Bay 11–7082]
effect on synthesis of spTorA-mCherry-SsrA (Tat++ conditions): inhibited synthesis

Fc1nc(F)c(F)c(NNC(=S)Nc2cccc(C(F)(F)F)c2)c1F [Compound 111, 1-[(2,3,5,6-tetrafluoropyridin-4-yl)amino]-3-[(3-trifluoromethyl)phenyl]thiourea]
IC50 [1]: 31 µM

N#CC(C#N)=NNc1ccccc1Br [Compound 1, [(2-bromophenyl)hydrazono]malononitrile]
IC50 (Escherichia coli): 6 µM

O=[N+]([O-])c1ccc(O)c(-c2cccs2)c1 [Compound 202, 4-nitro-2-thiophen-2-ylphenol]
IC50 (Escherichia coli): 5 µM

Oc1cc(Cl)ccc1Oc1ccc(Cl)cc1Cl [Compound 18^NIH, 5-Chloro-2-(2,4-dichlorophenoxy)phenol]
IC50 (Escherichia coli): 2 µM

N#CC1c2ccccc2-n2nncc2CN1Cc1cc(Cl)cc(Cl)c1 (stereo not shown) [21^NIH, 5-[(3,5-dichlorophenyl)methyl]-4,6-dihydrotriazolo[1,5-a][1, 4]benzodiazepine-6-carbonitrile]
IC50 [1]: 13 µM

FC(F)(F)c1cccc(-c2cccc3cnccc23)c1 [Compound 140, 5-[3-(trifluoromethyl)phenyl]isoquinoline]
IC50 (Escherichia coli): 14 µM

O=C1C=CC(=O)N1c1ccccc1 [N-phenylmaleimide]
effect on synthesis of spTorA-mCherry-SsrA (Tat++ conditions): inhibited synthesis

O=[N+]([O-])c1cc([N+](=O)[O-])c2ccccc2c1Cl [Compound 51, 1-chloro-2,4-dinitronaphthalene]
IC50 (Escherichia coli): 20 µM

O=C(Nc1cccc(C(F)(F)F)c1)Nc1ncc([N+](=O)[O-])s1 [Compound 181^JS, 1-(5-nitro-1,3-thiazol-2-yl)-3-[3-(trifluoromethyl)phenyl]urea]
IC50 (Escherichia coli): 20 µM
